From US7169772B2, “4,4-difluoro-1,2,3,4-tetrahydro-5H-1-benzazepine derivatives or salts thereof” (Astellas Pharma Inc., priority 2001, dated 2007)

Experiments:
human V2 receptor = molecular target: T1, human V2 receptor (Homo sapiens, UniProt P30518); experiment: V2 receptor binding assay; details: human V2 expression CHO cell membrane, [3H]-Vasopressin 0.5 nM, 25° C., 60 minutes; read-out: Ki (affinity for V2 receptor)
T1 construct: expressed in transfected cells; host or cells: CHO cells
Method: (1) V2 Receptor Binding Assay
A human V2 expression CHO cell membrane sample was prepared in accordance with a method of Tahara, et al. (British Journal of Pharmacology. Vol 125, p. 1463–1470, 1998). 2 μg of the membrane sample were incubated in a total of 250 μl of 50 mM tris-chloric acid buffer solution (pH=7.4) containing 10 mM MgCl2 and 0.1% bovine serum albumin (BSA), together with [^3H]-Arginine-Vasopressin (hereinafter referred to as ‘[^3H]-Vasopressin’) (0.5 nM, Specific activity=75 Ci mmol) and a test compound (10^−10˜10^−5 M) at 25° C. for 60 minutes. Then, free [^3H]-Vasopressin and receptor binding [^3H]-Vasopressin were separated using a cell harvester, and the receptor binding [^3H]-Vasopressin was adsorbed on a Unifilter Plate GF/B glass filter, sufficiently dried, and then mixed with a microplate scintillation cocktail. The amount of receptor binding [^3H]-Vasopressin was measured using a top count, and inhibition rate was calculated by the following equation. Inhibition Rate(%)=100−(C1−B1)/(C0−B1)×100 • C1: the amount of [^3H]-Vasopressin bound to the membrane sample, when the receptor membrane sample is treated in the coexistence of a test compound of known concentration and [^3H]-Vasopressin • C0: the amount of [^3H]-Vasopressin bound to the membrane sample, when the receptor membrane sample is treated with [^3H]-Vasopressin, in the absence of a test compound • B1: the amount of [^3H]-Vasopressin bound to the membrane sample, when the receptor membrane sample is treated in the coexistence of an excess amount of Vasopressin (10^−6 M) and [^3H]-Vasopressin
Dissociation Coefficient (Ki)=IC50/(1+[L]/Kd) • [L]: the concentration of [^3H]-Vasopressin • Kd: dissociation coefficient of [3H]-Vasopressin for the receptor, calculated from saturation binding assay

CYP3A4 = CYP3A4 (Homo sapiens, UniProt P08684); experiment: Cytochrome P450 (3A4) enzyme inhibition assay; format: biochemical; details: substrate 7-benzyloxy-4-(trifluoromethyl)coumarin, 37° C., 30 minutes
Method: (4) Cytochrome P450 (3A4) Enzyme Inhibition Assay
(§1) The assay was carried out in accordance with a method of Crespi, et al. (Analytical Biochemistry, 248, 188–190, 1997).
A 96 well plate was employed, and 7-benzyloxy-4-(trifluoromethyl)coumarin (5×10^−5 M) as a substrate, a test compound (4.9×10^−8˜5×10^−5 M), and an enzyme (5×10^−9 M) were incubated in a total of 200 μl of a 200 mM phosphate buffer solution (pH=7.4) comprising 8.2 μM NADP+, 0.41 mM glucose-6-phosphate, 0.41 mM MgCl2, and 0.4 Units/ml glucose-6-phosphate dehydrogenase, at 37° C. for 30 minutes. Then, 0.5 M aqueous solution of 2-amino-2-hydroxymethyl-1,3-propanediol containing 80% acetonitrile was added thereto to stop the reaction, and fluorescence intensity was measured with a fluorescent plate reader (excited wavelength: 409 nm, fluorescent wavelength: 530 nm). […] Inhibition Rate (%)=100−(C1−B1)/(C0−B1)×100 • C1: fluorescence intensity in the presence of a known concentration of test compound, enzyme, and a substrate
(§2) C0: fluorescence intensity in the presence of an enzyme and a substrate, in the absence of a test compound • B1: fluorescence intensity of a blank well (5) Cytochrome P450 (2C9) Enzyme Inhibition Effects

CYP2C9 = CYP2C9 (Homo sapiens, UniProt P11712); experiment: Cytochrome P450 (2C9) enzyme inhibition effects; format: biochemical; details: substrate 7-methoxy-4-(trifluoromethyl)coumarin, 37° C., 45 minutes
Method: as §2, §1
A 96 well plate was employed, and 7-methoxy-4-(trifluoromethyl)coumarin (7.5×10^−5 M) as a substrate, a test compound (4.9×10^−8˜5×10^−5M), and an enzyme (10^−8 M) were incubated in a total of 200 μl of a 200 mM phosphate buffer solution (pH=7.4) comprising 8.2 μM NADP+, 0.41 mM glucose-6-phosphate, 0.41 mM MgCl2, and 0.4 Units/ml glucose-6-phosphate dehydrogenase, at 37° C. for 45 minutes. Then, 0.5 M aqueous solution of 2-amino-2-hydroxymethyl-1,3-propanediol containing 80% acetonitrile was added thereto to stop the reaction, and fluorescence intensity was measured with a fluorescent plate reader (excited wavelength: 409 nm, fluorescent wavelength: 530 nm). […]

Wistar male rats = experiment: Antidiuresis assay (oral administration); format: in vivo; details: Rattus norvegicus, read-out: ED50 (amount required for decreasing urinary excretion rate by 50%), 30 ml/kg water load after 15 minutes, urine until 4 hours after water load
Method: (3) Antidiuresis Assay (Oral Administration)
For the assay, Wistar male rats (10˜12 weeks of age) were employed. The test compound was orally administrated, and after 15 minutes, 30 ml/kg of distilled water were orally administrated (water load). Until 4 hours after the water load, urine was collected in a metabolism cage, and the amount of urine when the water load was set to 100% was calculated as the urinary excretion rate. […]

T1 sequence (P30518 whole entry): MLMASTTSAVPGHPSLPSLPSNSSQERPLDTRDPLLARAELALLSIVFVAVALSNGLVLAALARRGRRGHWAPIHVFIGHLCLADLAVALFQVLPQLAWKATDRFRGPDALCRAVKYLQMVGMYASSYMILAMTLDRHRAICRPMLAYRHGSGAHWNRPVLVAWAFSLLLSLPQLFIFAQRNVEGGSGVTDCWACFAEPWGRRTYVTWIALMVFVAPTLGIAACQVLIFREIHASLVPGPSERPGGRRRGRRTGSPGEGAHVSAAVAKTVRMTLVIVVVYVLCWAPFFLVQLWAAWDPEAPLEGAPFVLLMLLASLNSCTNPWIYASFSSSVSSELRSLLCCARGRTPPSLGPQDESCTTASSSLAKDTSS
CYP3A4, sequence (P08684 whole entry): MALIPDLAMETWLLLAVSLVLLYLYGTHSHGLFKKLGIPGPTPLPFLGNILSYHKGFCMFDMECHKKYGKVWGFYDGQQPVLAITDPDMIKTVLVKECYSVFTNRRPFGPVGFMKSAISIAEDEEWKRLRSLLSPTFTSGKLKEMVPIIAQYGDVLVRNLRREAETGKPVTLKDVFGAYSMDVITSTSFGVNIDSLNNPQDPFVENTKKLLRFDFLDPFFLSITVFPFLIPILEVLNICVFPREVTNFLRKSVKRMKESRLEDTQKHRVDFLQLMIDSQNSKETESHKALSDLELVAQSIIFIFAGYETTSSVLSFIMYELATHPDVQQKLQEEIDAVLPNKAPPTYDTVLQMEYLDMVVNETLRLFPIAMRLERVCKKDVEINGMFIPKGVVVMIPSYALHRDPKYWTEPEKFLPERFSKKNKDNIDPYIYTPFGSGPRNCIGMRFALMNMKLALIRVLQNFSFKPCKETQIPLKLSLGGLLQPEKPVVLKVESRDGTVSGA
CYP2C9, sequence (P11712 whole entry): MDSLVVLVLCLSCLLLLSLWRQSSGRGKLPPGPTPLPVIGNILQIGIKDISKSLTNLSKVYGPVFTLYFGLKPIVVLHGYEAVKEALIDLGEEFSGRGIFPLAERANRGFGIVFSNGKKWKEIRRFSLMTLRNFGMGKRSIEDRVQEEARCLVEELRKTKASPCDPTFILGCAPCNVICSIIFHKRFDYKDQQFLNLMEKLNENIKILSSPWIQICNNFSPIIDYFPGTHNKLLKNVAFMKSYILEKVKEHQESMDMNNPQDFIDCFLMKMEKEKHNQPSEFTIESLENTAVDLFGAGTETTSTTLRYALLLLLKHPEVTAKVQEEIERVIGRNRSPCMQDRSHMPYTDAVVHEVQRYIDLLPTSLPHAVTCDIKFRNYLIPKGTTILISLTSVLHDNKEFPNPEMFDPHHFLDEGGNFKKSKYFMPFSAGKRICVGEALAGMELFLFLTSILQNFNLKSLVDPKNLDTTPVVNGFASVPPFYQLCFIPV

Compound	Ki (human V2 receptor)	IC50 (CYP3A4)	IC50 (CYP2C9)	ED50 (Wistar male rats)
CC(C)NC(=O)C[C@H]1CCCN(C(=O)c2ccc(N3CCCC3)cc2Cl)c2ccccc21 [Control, 2-[(5R)-1-(2-chloro-4-pyrrolidin-1-ylbenzoyl)-2,3,4,5-tetrahydro-1H-1-benzazepin-5-yl]-N-isopropyacetamide, reference compound]	68 nM	< 91 nM	< 91 nM	
Cc1ccn(-c2ccc(C(=O)N3CCC(F)(F)/C(=C\C(N)=O)c4ccccc43)c(Cl)c2)n1 [Example 8, (2Z)-2-{1-[2-chloro-4-(3-methyl-1H-pyrazol-1-yl)benzoyl]-4,4-difluoro-1,2,3,4-tetrahydro-5H-benzazepine}acetamide]		> 20000 nM	13000 nM	
NC(=O)CNC(=O)/C=C1/c2ccccc2N(C(=O)c2ccc(N3CCCC3)cc2Cl)CCC1(F)F [Example 220, (2Z)-N-(2-amino-2-oxoethyl)-2-[1-(2-chloro-4-pyrrolidin-1-ylbenzoyl)-4,4-difluoro-1,2,3,4-tetrahydro-5H-1-benzazepin-5-ylidene]acetamide]		10000 nM	11000 nM	
Cc1ccn(-c2ccc(C(=O)N3CCC(F)(F)/C(=C\C(=O)N4CCCC(C(N)=O)C4)c4ccccc43)c(Cl)c2)n1 (stereo not shown) [Example 58, 1-((2Z)-2-{1-[2-chloro-4-(3-methyl-1H-pyrazol-1-yl)benzoyl]-4,4-difluoro-1,2,3,4-tetrahydro-5H-1-benzazepin-5-ylidene}acetyl)piperidine-3-carboxamide]	4.8 nM			
Cc1ccn(-c2ccc(C(=O)N3CCC(F)(F)/C(=C\C(=O)Nc4ccc(C(N)=O)cc4)c4ccccc43)c(Cl)c2)n1 [Example 72, 4-[((2Z)-2-{1-[2-chloro-4-(3-methyl-1H-pyrazol-1-yl)benzoyl]-4,4-difluoro-1,2,3,4-tetrahydro-5H-1-benzazepin-5-ylidene}acetyl)amino]benzamide]	3.7 nM			

The next lines start with results.

Ki (human V2 receptor)	IC50 (CYP3A4)	IC50 (CYP2C9)	Compound	ED50 (Wistar male rats)
5.6 nM			Cc1cccc(CNC(=O)/C=C2/c3ccccc3N(C(=O)c3ccc(-n4ccc(C)n4)cc3Cl)CCC2(F)F)n1 [Example 119, (2Z)-2-{1-[2-chloro-4-(3-methyl 1H-pyrazol-1-yl)benzoyl]-4,4-difluoro-1,2,3,4-tetrahydro-5H-1-benzazepin-5-ylidene}-N-[(6-methylpyridin-2-yl)methyl]acetamide]	
2.2 nM			Cc1ccn(-c2ccc(C(=O)N3CCC(F)(F)/C(=C\C(=O)Nc4cccc(CO)c4)c4ccccc43)c(Cl)c2)n1 [Example 76, (2Z)-2-{1-[2-chloro-4-(3-methyl-1H-pyrazol-1-yl)benzoyl]-4,4-difluoro-1,2,3,4-tetrahydro-5H-1-benzazepin-5-ylidene}-N-[3-(hydroxymethyl)phenyl]acetamide]	0.22 mg/kg
5.6 nM			Cc1cccc(NC(=O)/C=C2/c3ccccc3N(C(=O)c3ccc(-n4ccc(C)n4)cc3Cl)CCC2(F)F)c1 [Example 74, (2Z)-2-{1-[2-chloro-4-(3-methyl-1H-pyrazol-1-yl)benzoyl]-4,4-difluoro-1,2,3,4-tetrahydro-5H-1-benzazepin-5-ylidene}-N-(3-methylphenyl)acetamide]	
